Holding throughout (assay type): cell-based
The test system of one assay is A431. Description: Test Example 4 growth suppression activity, CellTiter-Glo. The conditions noted are these: A-431, 72 h; A431, Human epidermoid carcinoma, 3 days. How it is done: (§1) Human tumor cell lines different in type were suspended in mediums, seeded in individual wells of a multi-well plate and cultured. On the day after initiation of culture, serially diluted solutions of a compound were added. Culture was carried out for further 3 days. Cells were counted by a CellTiter-Glo (manufactured by Promega KK) in accordance with the protocol recommended by Promega KK. Cell viability was calculated in accordance with the equation shown below and the concentration (IC50 (nM)) of the compound at which 50% of cell growth is inhibited was obtained.
(§2) Cell viability (%)=(T/C)×100
(§3) T: Intensity of light emitted from a well containing a compound
(§4) C: Intensity of light emitted from a well containing no compound
(ATP-based viability assays read luminescence as a measure of living cells.)

The test system of the next assay is A549. Described as above. To be noted: 72 h; A549, Human lung cancer, 3 days. On the procedure: as §1, §2, §3, §4
The subject of a further assay is H1650. The description is as above. To be noted: NCI-H1650, 72 h; H1650, Human lung cancer, 3 days. How it is done:
as §1, §2, §3, §4

The subject of a further assay is H2122. Described as above. To be noted: NCI-H2122, 72 h; H2122, Human lung cancer, 3 days. On the procedure:
as §1, §2, §3, §4

The test system of another assay is H358. The assay is described as above. To be noted: NCI-H358, 72 h; H358, Human lung cancer, 3 days. On the procedure:
as §1, §2, §3, §4

For a further assay, the system named is HCC827. Described as above. To be noted: 72 h; HCC827, Human lung cancer, 3 days. How it is done: as §1, §2, §3, §4
Another assay relates to SK-BR-3. The assay is described as above. The conditions noted are these: 72 h; SK-BR-3, Human breast cancer, 3 days. On the procedure: as §1, §2, §3, §4
Assay [1] relates to human brain tumor cell line (U-87 MG). As to the kind of experiment: Test Example 8: combination use of compound and radiation, crystal violet cell viability. To be noted: any order (same-day, compound first, radiation first), Student's t-test. On the procedure:
A human brain tumor cell line (U-87 MG) was suspended in a medium, seeded in individual wells of a multi-well plate and cultured. In the case where radiation exposure and addition of a compound are simultaneously carried out, both treatments were carried out on two days after initiation of culture. In the case where addition of a compound preceded radiation exposure, a serially diluted solution of a compound was added on the day after initiation of culture and radiation exposure was carried out on two days after initiation of culture. In the case where radiation exposure preceded addition of a compound, radiation exposure was carried out on the day after initiation of culture and a serially diluted solution of a compound was added on the two days after initiation of culture. Day 5 after seeding, cells were fixed with a 25% aqueous solution of glutaraldehyde and stained with a staining fluid (0.05 w/v % crystal violet in 20% methanol). After an extract (0.1 N NaH2PO4: 100% ethanol=1:1) was added and stirred, an absorbance at 540 nm was measured to obtain a cell count. The cell viability was calculated in accordance with the following equation and statistically processed in accordance with a Student's t-test.
as §2
T: Absorbance of a well exposed to radiation or containing a compound
C: Absorbance of a well neither exposed to radiation nor containing a compound

For assay [2] the test system is unchanged. Description: Test Example 9: combinational effect of compound and temozolomide (TMZ), crystal violet cell viability. To be noted: any order (same-day, compound first, TMZ first), Student's t-test. On the procedure: A human brain tumor cell line (U-87 MG) was suspended in a medium, seeded in individual wells of a multi-well plate and cultured. In the case where two compounds are simultaneously added, both compounds were added on two days after initiation of culture. In the case where addition of the compound of the present invention preceded, a serially diluted solution of the compound was added on the day after initiation of culture and a serially diluted solution of TMZ was added two days after initiation of culture. In the case where addition of TMZ preceded, a serially diluted solution of TMZ was added on the day after initiation of culture and a serially diluted solution of the compound was added on two days after initiation of culture. Day 5 after seeding, cells were fixed with a 25% aqueous solution of glutaraldehyde and stained with a staining fluid (0.05 w/v % crystal violet in 20% methanol). After an extract (0.1 N NaH2PO4:100% ethanol=1:1) was added and stirred, an absorbance at 540 nm was measured to obtain a cell count. The cell viability was calculated in accordance with the following equation and statistically processed in accordance with a Student's t-test.
as §2
T: Absorbance of a well containing TMZ or a compound
C: Absorbance of a well containing neither TMZ nor a compound

For orientation: IC50 means the midpoint of a concentration-inhibition curve. A high value points to weaker potency in that assay. For `Nc1ncnc2c1c(I)cn2[C@@H]1O[C@H](CO)[C@@H](O)[C@@H]1F` [Comparative Example 2, (2R,3R,4S,5R)-5-(4-amino-5-iodo-7H-pyrrolo[2,3-d]pyrimidin-7-yl)-4-fluoro-2-(hydroxymethyl) tetrahydrofuran-3-ol], the IC50 with A431 was found to be 18 nM; in the assay with A549 it was 14 nM; with H1650, 8 nM; in the assay with H2122 it was 9 nM; with H358, 52 nM; in the assay with HCC827 it was 176 nM. The same molecule had an IC50 with SK-BR-3 of 23 nM. The “cell viability, combination treatment with radiation exposure compared to the single treatments” value in [1] is listed as “significantly decreased”. Besides, in [2], the “cell viability, combination treatment with TMZ compared to the single treatments” value is “significant decrease”.

Source of the values: patent US20220267365A1, “NOVEL PHOSPHATE ESTER COMPOUND HAVING PYRROLOPYRIMIDINE SKELETON OR PHARMACEUTICALLY ACCEPTABLE SALT THEREOF” (TAIHO PHARMACEUTICAL CO., LTD., priority 2019, published 2022).
